Data on four molecules can be found in patent US4937245A, “Bisphenylalkylpiperazine derivatives, a method of their preparation and a pharmaceutical preparation” (priority 1987, dated 1990).

In test [1] the test system is amphetamine-induced hypermotility in mice. As to the kind of experiment: Antagonism of amphetamine-induced hypermotility in mice (Test 1). The format is in vivo. The following applies: Mus musculus, sc, 1.5 h, test compound s.c., d-amphetamine 2 mg/kg i.p., locomotor activity 90 min, dose reducing motility to midpoint between amphetamine and saline controls. The protocol:
Antagonism of amphetamine-induced hypermotility in mice
A low dose (2 mg/kg) of d-amphetamine administered to mice induced pronounced locomotor activity.
Female NMRI-mice, weighing about 25 g are divided into groups of 4 animals and placed in macrolon cages. The cages are placed on recording arenas in nine sound attenuated boxes with constant light and ventilation. After a familiarization period of 90 minutes the mice are brought up from the cages and treated in the following way; one control group receives saline i.p., one control group receives d-amphetamine sulphate, 2 mg/kg i.p. and test animals are treated s.c. with three different doses of the test compound and immediately thereafter with d-amphetamine 2 mg/kg i.p. Immediately after the administration the macrolon cages with the mice are put back into the test boxes and a computerized equipment records the locomotor activity in the cages for 90 minutes.
For each test compound 4 cages are treated with saline, 4 cages with only d-amphetamine and 6 cages/dose test compound+d-amphetamine. This is the total of three different experiments.
For each treatment group the mean number of counts during 90 minutes following the administration is calculated.
The ED50 -value (mg/kg) is calculated from the dose-response curve by means of linear regression. […]

The target in test [2] is T1, D2-receptors (Rattus norvegicus, UniProt P61169).
T1 construct: from tissue; host or cells: brain membranes
The experiment in a line: Affinity to D2-receptors, 3H-spiroperidol ligand (Test 2). Type of test: binding. The following applies: 3H-spiroperidol as ligand. The protocol: Affinity to D2 -receptors
The binding assay is carried out essentially as described by Leysen et al., (Mol. Pharmacol. 21, 301-14, 1982) using ^3 H-spiroperidol as ligand.

The target in test [3] is T2, 5HT2-receptors (Rattus norvegicus, UniProt P14842).
T2 construct: from tissue; host or cells: brain membranes
The experiment in a line: Affinity to 5HT2-receptors, 3H-ketanserine ligand (Test 3). The note with it: 3H-ketanserine as ligand. Type of test: binding. The protocol: Affinity to 5HT2 -receptors
The binding assay is carried out essentially as described by Leysen et al., (Mol. Pharmacol. 21, 301-14, 1982) using ^3 H-ketanserine as ligand.

The subject of test [4] is 5-HT2 binding site. The note with it: background statement on known drugs; cited from earlier work.

T1 sequence (P61169 whole entry): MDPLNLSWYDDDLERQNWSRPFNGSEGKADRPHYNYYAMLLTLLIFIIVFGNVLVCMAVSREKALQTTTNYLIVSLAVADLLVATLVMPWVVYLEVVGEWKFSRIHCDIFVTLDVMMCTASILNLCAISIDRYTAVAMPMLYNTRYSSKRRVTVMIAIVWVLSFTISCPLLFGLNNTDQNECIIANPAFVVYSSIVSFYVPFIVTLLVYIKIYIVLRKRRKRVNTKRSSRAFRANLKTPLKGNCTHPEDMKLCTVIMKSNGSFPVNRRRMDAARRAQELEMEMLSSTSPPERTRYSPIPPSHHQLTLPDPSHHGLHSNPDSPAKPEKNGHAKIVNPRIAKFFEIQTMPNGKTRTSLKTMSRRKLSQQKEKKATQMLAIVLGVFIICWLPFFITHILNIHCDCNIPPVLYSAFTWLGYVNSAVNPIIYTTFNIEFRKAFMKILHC
T2 sequence (P14842 whole entry): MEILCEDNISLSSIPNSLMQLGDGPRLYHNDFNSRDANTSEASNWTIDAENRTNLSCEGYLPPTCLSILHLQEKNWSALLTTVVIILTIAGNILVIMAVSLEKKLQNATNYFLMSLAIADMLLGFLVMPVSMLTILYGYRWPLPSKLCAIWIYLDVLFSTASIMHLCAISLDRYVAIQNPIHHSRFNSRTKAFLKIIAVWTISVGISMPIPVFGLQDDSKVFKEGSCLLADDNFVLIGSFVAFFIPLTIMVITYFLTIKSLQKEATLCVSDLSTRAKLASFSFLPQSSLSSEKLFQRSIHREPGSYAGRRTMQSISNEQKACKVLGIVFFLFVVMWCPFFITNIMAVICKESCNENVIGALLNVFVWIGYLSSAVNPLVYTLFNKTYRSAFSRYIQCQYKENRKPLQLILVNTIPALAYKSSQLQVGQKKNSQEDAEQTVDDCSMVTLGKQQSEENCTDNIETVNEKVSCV

`Fc1ccc(C(CCCN2CCN(c3ccccn3)CC2)c2ccc(F)cc2)cc1` [3:1, 4-[4,4-bis(p-fluorophenyl)butyl]-1-(2-pyridyl)-piperazine] yielded a median effective dose (ED50) in test [1] of 0.1 mg/kg. Moreover, the Ki was 0.06 µM in test [2] and 0.0058 µM in test [3].

Regarding `NC(=O)c1cccnc1N1CCN(CCCC(c2ccc(F)cc2)c2ccc(F)cc2)CC1` [1:6, 4-[4,4-bis(p-fluorophenyl)butyl]-1-(3-carbamoyl-2-pyridyl)piperazine], the 50% effective dose (ED50) in test [1] is 0.3 mg/kg. Further, the values for the Ki in test [2] and in test [3] were 0.03 µM and 0.0021 µM, respectively.

`Fc1ccc(C(CCCN2CCCN(c3ccccn3)CC2)c2ccc(F)cc2)cc1` [1:15, 4-[4,4-bis(p-fluorophenyl)butyl]-1-(2-pyridyl)-(1,4-diaza-cycloheptane)]: the Ki was found to be 0.025 µM in test [2] and 0.0013 µM in test [3].

On to `Cc1nc2sccn2c(=O)c1CCN1CCC(=C(c2ccc(F)cc2)c2ccc(F)cc2)CC1` [ritanserine], for which the “5HT2 blocking potency / binding site preference” value in test [4] was “labels preferentially the 5-HT2 binding site”.
